Test results published in patent US9457089B2, “Highly concentrated aqueous protein solution with reduced viscosity” (ADOCIA, priority 2012, dated 2016).
Structures can show the parent of a compound that is named as a salt.

How the values were obtained:
trastuzumab = experiment: Viscosity reduction of highly concentrated trastuzumab solution (cone/plate rheometer); format: physicochemical; settings: trastuzumab 200 mg/ml, 150 mM agent, pH 6.0±0.2, 21° C. (Table III)
Text: (§1) For this example, three solutions of monoclonal antibodies, i.e. a solution of bevacizumab (an IgG1 sold under the name Avastin® by Genentech/Hoffmann La Roche), a solution of infliximab (an IgG1/κ sold under the name Remicade® by Schering-Plough) and a solution of trastuzumab (an IgG1/κ sold under the name Herceptin® by Genentech), were concentrated by ultrafiltration on Amicon® Ultra-15 centrifuge filtration units with a cutoff threshold of 50 kDa. The protein concentration of each concentrated solution was measured by UV spectroscopy (absorbance at 280 nm) after dilution of the samples.
(§2) The commercial solution of bevacizumab (25 mg/ml) was concentrated to 268 mg/ml. […] Once reconstituted, the infliximab and trastuzumab formulations were concentrated to, respectively, 183 mg/ml and 243 mg/ml.
(§3) The effect of uridine compared with that of arginine and of NaCl on the viscosity of these three highly concentrated therapeutic protein solutions was then evaluated. For this, the viscosity was measured using a cone/plate rheometer (TA Instruments, AR 2000 Ex, geometry or diameter 20 mm, cone of 0.5131°, solvent trap filled with water) at a temperature of 21° C. and in flow sweep mode with shear rates of between 5000 and 50 s^−1 (3 points per decade-steady-state sensing). All the viscosity values are determined at the level of the Newtonian plateau.
(§4) For this example, the “Protein+Urid”, “Protein+Arg” and “Protein+NaCl” formulations were prepared by mixing one of the previously prepared undine, arginine or NaCl solutions, with Milli-Q® water and with one of the previously prepared concentrated protein solutions so as to achieve a final uridine, arginine or NaCl concentration of 150 mmol/l (mM) and a final protein concentration of 220 mg/ml for bevacizumab, 150 mg/ml for infliximab and 200 mg/ml for trastuzumab. The samples thus prepared were stored at ambient temperature and were analyzed using a rheometer within 24 hours of their preparation.
(§5) The “control” solutions are prepared by dilution in Milli-Q® water, so as to achieve a final protein concentration of 220 mg/ml for bevacizumab, 150 mg/ml for infliximab and 200 mg/ml for trastuzumab.
(§6) The pH of these formulations (“Protein+Urid”, “Protein+Arg” and “Protein+NaCl” and “controls”) is the same as that of the commercial formulation of the corresponding therapeutic protein (table II).
(§7) The results of the measurements relating to this second example are given in table III hereinafter in the form of percentages of viscosity reduction relative to the control solution of therapeutic protein alone, at the same protein concentration as the “Protein+Urid”, “Protein+Arg” or “Protein+NaCl” formulations.

bevacizumab = experiment: Viscosity reduction of highly concentrated bevacizumab solution (cone/plate rheometer); format: physicochemical; settings: bevacizumab 220 mg/ml, 150 mM agent
Text: as §1, §2, §3, §4, §5, §6, §7
(§8) In this study, the highly concentrated bevacizumab and infliximab solutions used are the same as those which were prepared and used previously. The “Protein+Cyt”, “Protein+Deoxycyt”, “Protein+Urid”, “Protein+Arg”, “Protein+NaCl” and “Protein+ATP” formulations were prepared in the presence of 150 mM of cytidine, of 2′-deoxycytidine, of uridine, of arginine, of NaCl or of sodium salt of adenosine 5′-triphosphate.
(§9) The viscosity of the “Protein+Cyt”, “Protein+Deoxycyt” and “Protein+Urid” formulations was then measured as described in example 2 and compared with that obtained for the “Protein+Arg”, “Protein+NaCl” and “Protein+ATP” formulations. The pH of these formulations is the same as that of the corresponding therapeutic protein formulation, i.e. 6.2±0.2 for bevacizumab and 7.2±0.2 for infliximab.
(§10) The results of the measurements relating to this example are given in tables IV and V hereinafter in the form of percentages of viscosity reduction relative to the control solution of therapeutic protein alone, at the same protein concentration as the “Protein+Cyt”, “Protein+Deoxycyt”, “Protein+Urid”, “Protein+Arg”, “Protein+NaCl” and “Protein+ATP” formulations.

infliximab = experiment: Viscosity reduction of highly concentrated infliximab solution (cone/plate rheometer); format: physicochemical; settings: for % viscosity reduction relative to the control infliximab solution: pH 7.2±0.2
Text: as §1, §2, §3
The samples thus prepared were stored at ambient temperature and were analyzed using a rheometer within 24 hours of their preparation. […]
as §6, §7, §8, §9, §10
The highly concentrated infliximab solution used is the same as that which was prepared previously. The “Protein+Cyt” and “Protein+Arg” formulations were prepared in the presence of 150 mM of cytidine or of arginine and with infliximab concentrations decreasing from 150 mg/ml to 80 mg/ml.
The pH of these formulations is the same as that of the commercial infliximab formulation, i.e. 7.2±0.2. The viscosity of the formulations thus prepared was measured as described in example 2.
The results of the measurements relating to this example are given in table VI hereinafter in the form of percentages of viscosity reduction relative to the control Infliximab solution.
The highly concentrated infliximab solution used is the same as that which was prepared and used previously. […]

[1] = cited from earlier work
[2] = Infliximab 105 mg/ml, 50 mM agent, pH 7.2
[3] = Infliximab 105 mg/ml, 150 mM agent, pH 7.2 (Table VII)
[4] = Infliximab 105 mg/ml, 300 mM agent, pH 7.2
[5] = infliximab 80 mg/ml, 150 mM agent
[6] = infliximab 105 mg/ml, 150 mM agent
[7] = infliximab 125 mg/ml, 150 mM agent
[8] = infliximab 140 mg/ml, 150 mM agent
[9] = infliximab 150 mg/ml, 150 mM agent
[10] = infliximab 150 mg/ml, 150 mM agent, pH 7.2±0.2 (Table V)
[11] = infliximab 150 mg/ml, 150 mM agent, pH 7.2±0.2, 21° C. (Table III)

Cl.N=C(N)NCCC[C@H](N)C(=O)O [Arg, L-arginine hydrochloride salt]
% viscosity reduction relative to the “protein alone” control (trastuzumab): 48%
% viscosity reduction relative to the “protein alone” control (bevacizumab; pH 6.2±0.2 (Table IV)): 46%
% viscosity reduction relative to the “protein alone” control (bevacizumab; pH 6.2±0.2, 21° C. (Table III)): 46%
% viscosity reduction relative to the “protein alone” control (infliximab; [2]): 32%
% viscosity reduction relative to the “protein alone” control (infliximab; [3]): 46%
% viscosity reduction relative to the “protein alone” control (infliximab; [4]): 58%
% viscosity reduction relative to the control infliximab solution (infliximab; [5]): 36%
% viscosity reduction relative to the control infliximab solution (infliximab; [6]): 47%
% viscosity reduction relative to the control infliximab solution (infliximab; [7]): 46%
% viscosity reduction relative to the control infliximab solution (infliximab; [8]): 59%
% viscosity reduction relative to the control infliximab solution (infliximab; [9]): 55%
% viscosity reduction relative to the “protein alone” control (infliximab; [10]): 55%
% viscosity reduction relative to the “protein alone” control (infliximab; [11]): 55%

Nc1ccn([C@H]2C[C@H](O)[C@@H](CO)O2)c(=O)n1 [Deoxycyt, 2′-Deoxycytidine]
% viscosity reduction relative to the “protein alone” control (bevacizumab; pH 6.2±0.2 (Table IV)): 51%
% viscosity reduction relative to the “protein alone” control (infliximab; [10]): 75%

Nc1nc2c(ncn2[C@@H]2O[C@H](CO)[C@@H](O)[C@H]2O)c(=O)[nH]1 [guanosine]
solubility (in words) [1]: very poor solubility

Nc1ccn([C@@H]2O[C@H](CO)[C@@H](O)[C@H]2O)c(=O)n1 [Cyt, Cytidine]
% viscosity reduction relative to the “protein alone” control (bevacizumab; pH 6.2±0.2 (Table IV)): 43%
% viscosity reduction relative to the “protein alone” control (infliximab; [2]): 39%
% viscosity reduction relative to the “protein alone” control (infliximab; [3]): 68%
% viscosity reduction relative to the “protein alone” control (infliximab; [4]): 72%
% viscosity reduction relative to the control infliximab solution (infliximab; [5]): 58%
% viscosity reduction relative to the control infliximab solution (infliximab; [6]): 68%
% viscosity reduction relative to the control infliximab solution (infliximab; [7]): 69%
% viscosity reduction relative to the control infliximab solution (infliximab; [8]): 77%
% viscosity reduction relative to the control infliximab solution (infliximab; [9]): 76%
% viscosity reduction relative to the “protein alone” control (infliximab; [10]): 76%

[Cl-].[Na+] [NaCl, Sodium chloride]
% viscosity reduction relative to the “protein alone” control (trastuzumab): 34%
% viscosity reduction relative to the “protein alone” control (bevacizumab; pH 6.2±0.2 (Table IV)): 24%
% viscosity reduction relative to the “protein alone” control (bevacizumab; pH 6.2±0.2, 21° C. (Table III)): 24%
% viscosity reduction relative to the “protein alone” control (infliximab; [2]): 20%
% viscosity reduction relative to the “protein alone” control (infliximab; [3]): −6%
% viscosity reduction relative to the “protein alone” control (infliximab; [4]): −90%
% viscosity reduction relative to the “protein alone” control (infliximab; [10]): 6%
% viscosity reduction relative to the “protein alone” control (infliximab; [11]): 6%

O=c1ccn([C@@H]2O[C@H](CO)[C@@H](O)[C@H]2O)c(=O)[nH]1 [Urid, Uridine]
% viscosity reduction relative to the “protein alone” control (trastuzumab): 35%
% viscosity reduction relative to the “protein alone” control (trastuzumab; listed as uridine): 35%
% viscosity reduction relative to the “protein alone” control (bevacizumab; pH 6.2±0.2 (Table IV)): 64%
% viscosity reduction relative to the “protein alone” control (bevacizumab; pH 6.2±0.2, 21° C. (Table III)): 64%
% viscosity reduction relative to the “protein alone” control (bevacizumab; pH 6.2±0.2, 21° C. (Table III), listed as uridine): 64%
% viscosity reduction relative to the “protein alone” control (infliximab; [10]): 70%
% viscosity reduction relative to the “protein alone” control (infliximab; [11]): 70%
% viscosity reduction relative to the “protein alone” control (infliximab; infliximab 150 mg/ml, 150 mM agent, pH 7.2±0.2, 21° C. (Table III), listed as uridine): 70%

Nc1ncnc2c1ncn2[C@@H]1O[C@H](COP(=O)(O)OP(=O)(O)OP(=O)(O)O)C(O)C1O (stereo partly drawn) [ATP, Sodium salt of adenosine 5′-triphosphate]
effect on the viscosity of bevacizumab (in words) (bevacizumab): does not make it possible to reduce the viscosity
increase of the viscosity of bevacizumab (bevacizumab): 14%
% viscosity reduction relative to the “protein alone” control (bevacizumab; pH 6.2±0.2 (Table IV)): −14%
effect on the viscosity of bevacizumab (in words) (bevacizumab; listed as sodium salt of adenosine 5′-triphosphate): does not make it possible, a fortiori, to reduce the viscosity
effect on the viscosity of infliximab (in words) (infliximab; [9]): does not make it possible to reduce the viscosity
% viscosity reduction relative to the “protein alone” control (infliximab; [10]): 0%
